{
  "source": "patent US12012622B1",
  "about": "“Paenibacillus pabuli-derived enzyme capable of producing galacto-oligosaccharide, and method for producing galacto-oligosaccharide” (GODO SHUSEI CO., LTD., priority 2018, dated 2024)",
  "key": {"[1]": {"system": "Bacillus circulans lactase β-galII (main enzyme of BIOLACTA)", "conditions": "substrate ONPG; cited from Non-Patent Literature 1; cited from earlier work"}, "[2]": {"system": "Paenibacillus pabuli lactase (enzyme of Example 1, SEQ ID NO: 1)", "assay": "Analysis of reaction rate parameter with ONPG as substrate (Validation 1)", "assay_type": "biochemical", "conditions": "substrate ONPG 0.075 to 7.5 mM; 40° C., 10 minutes; 100 mM sodium phosphate (pH 6.5)", "excerpt": "After the production of each enzyme, the transformant was ultrasonically disrupted to give a cell disruption liquid. […] The prepared cell disruption liquids were each ultra-filtered as necessary to concentrate the enzyme. The concentrated disruption liquid of the enzyme consisting of an amino acid sequence set forth in SEQ ID NO: 1 was defined as Example 1, and the concentrated disruption liquid of the enzyme consisting of an amino acid sequence set forth in SEQ ID NO: 2 was defined as Example 2.\nThe reaction rate parameter when using the ONPG of the enzyme of Example 1 as the substrate was determined by the following method. The specific activity (μmol/mg protein/min) upon reaction at a substrate concentration of 0.075 to 7.5 mM at 40° C. for 10 minutes was calculated, and the specific activity was plotted to each substrate concentration. At this time, 100 mM sodium phosphate (pH 6.5) was used as the buffer. From the substrate saturation curve measured by the above method, following the Michaelis-Menten equation, Km (Michaelis-Menten constant), which indicates the affinity between the enzyme and the substrate, and V. (maximum velocity), which indicates how many micromoles of substrate is catalyzed in 1 minute per mg of the enzyme, were calculated."}},
  "note": "Marks after values point to notes of the source that are not given here.",
  "data": [
    {"smiles": "O=[N+]([O-])c1ccccc1O[C@@H]1O[C@H](CO)[C@H](O)[C@H](O)[C@H]1O", "note": "[ONPG, o-nitrophenyl-β-galactopyranoside]", "values": [
      {"measurement": "Km", "setting": "[1]", "result": 10, "unit": "mM"},
      {"measurement": "Vmax", "setting": "[1]", "result": "56.0* units/mg protein"},
      {"measurement": "Km", "setting": "[2]", "result": 0.36, "unit": "mM"},
      {"measurement": "Vmax", "setting": "[2]", "result": 55.0, "unit": "units/mg protein"}
    ]}
  ]
}
